Entries after “also recorded” stand apart in the source; their conditions may differ. Where two headings read alike, the source gives them in different places. Each block holds one molecule with its values, some of them ahead of it. No end group written: not given here.
What was measured:
NCI-H716 cells = assay: In vitro GLP-1 secretion in NCI-H716 cells; assay type: cell-based, human; details: NCI-H716 cells, 2.0, 2.5 and 3.0 mM, 3 h
Description: (§1) NCI-H716 and STC-1 enteroendocrine cell lines are widely conducted to investigate the mechanisms of GLP-1 expression. The STC-1 and NCI-H716 cell lines in this study were sourced from Bioresource Collection and Research (BCRC, Hsinchu, Taiwan). STC-1 cells were seeded in 12-well plates at 2 × 10^6 cells/mL, while NCI-H716 cells were seeded in Matrigel-coated 12-well plates at 2 × 10^5 cells/mL. Upon reaching 85% confluence, the supernatants were replaced with HEPES buffer for STC-1 and RPMI-1640 buffer without FBS for NCI-H716. […] After incubating at 37 °C with 5% CO2 for 3 h, the supernatants were harvested and assessed for GLP-1 levels using the active glucagon-like peptide-1 kit from Millipore Corp. (Billerica, MA, USA).

db/db mice = assay: Oral glucose tolerance test (OGTT) in db/db mice; assay type: in vivo; details: week 3, glucose 2 g/kg, 120 min, 1CBR 500 mg/kg/day, sitagliptin 20.5 mg/kg/day, p < 0.05
Description: In this study, db/db mice (BKS.Cg-Dock7m+/+Leprdb/JNarl from National Laboratory Animal Center, Taipei, Taiwan) 5 weeks of age and weighing 22–25 g were analyzed. The mice were given the 5001-Laboratory Rodent Diet (LabDiet®, St. Louis, MO, USA), which comprised 57% carbohydrate, 13% fat, and 30% protein by total kcal.
An OGTT was conducted on mice fasted overnight from each group at week 0 and week 3. Blood samples were collected by retro-orbital bleed at 0 to 120 min following a glucose challenge (2 g/kg) to determine glucose levels using a Glucose GOD-PAP kit (Randox Laboratories Ltd., Crumlin, UK).

active GLP-1 = assay: Plasma active GLP-1 level in db/db mice; assay type: in vivo; details: after 3-week treatment, 1CBR 500 mg/kg/day, sitagliptin 20.5 mg/kg/day, group C 5.22
Description: (§2) Between the ages of 6 and 8 weeks, the blood glucose concentrations in the mice were monitored weekly. Diabetes was determined in mice when the blood glucose levels surpassed 400 mg/dL after an OGTT test (oral glucose tolerance). The mice were randomly allocated to three groups, each consisting of 13 individuals. The experimental period lasted for 3 weeks. […] Mice were housed in groups of 3–4 per cage. The sample size was determined based on previous studies and ethical considerations (3Rs principle) to achieve adequate statistical power without excessive animal use. […] This dose was also within the effective range reported for other food-derived bioactive protein hydrolysates in rodent models.
(§3) At week 3, blood samples were obtained from all mice into EDTA-treated chilled tubes and then centrifuged at 3000× g for 15 min. The supernatant was kept on ice for up to 3 h for further analysis. Plasma insulin levels and DPP-IV activity were determined using an insulin ELISA kit (Mercodia AB, Uppsala, Sweden) and a DPP-IV assay kit (Enzo Inc., Farmingdale, NY, USA), respectively. Plasma total GLP-1 levels were measured using the glucagon-like peptide-1 (total) kit from RayBiotech Inc. (Norcross, GA, USA), while active GLP-1 levels were assessed with the active GLP-1 kit from Millipore Corp. (Billerica, MA, USA), each from a different supplier.

STC-1 cells = assay: In vitro GLP-1 secretion in STC-1 cells; assay type: cell-based; details: STC-1 cells, 2.0, 2.5 and 3.0 mM, 3 h
Description: as §1

plasma insulin = assay: Plasma insulin level in db/db mice (ELISA); assay type: in vivo; details: after 3-week treatment, 1CBR 500 mg/kg/day, sitagliptin 20.5 mg/kg/day, untreated group C 6.51
Description: as §2, §3

total GLP-1 = assay: Plasma total GLP-1 level in db/db mice; assay type: in vivo; details: after 3-week treatment, 1CBR 500 mg/kg/day, sitagliptin 20.5 mg/kg/day
Description: as §2, §3

[1] = set-up: species or system Sprague–Dawley rats; details: rat, in vivo; for AR30 (absorption ratio at 30 min) / AR90 (absorption ratio at 90 min) / AUC / Cmax / Fractional absorption / Tmax / half-life: po, 16 mg/kg
Excerpt: In this study, GPFPLPD and […] peptides were synthesized and prepared for the in vivo absorption study as outlined in Section 2.4. The experiment involved ten male Sprague–Dawley rats (LASCO, Taipei, Taiwan), each 6 weeks old and weighing between 230 and 250 g. Prior to the experiment, the rats were allowed a 7-day acclimatization period, during which they were fed a 5012-Rat Diet (LabDiet®, St. Louis, MO, USA), consisting of 60% carbohydrates, 13% fat, and 27% protein based on total caloric content. The rats were randomly assigned to two groups (5 rats per group) and orally administered a single dose of either GPFPLPD or […] peptide at 16 mg/kg body weight.
Overnight-fasted rats were administered the peptides, and blood samples were collected from the tail vein at 0, 30, 60, 90, and 180 min post-administration. To obtain plasma, the samples were centrifuged at 3000× g for 15 min at 4 °C. A 500 µL aliquot of plasma was then combined with an equal volume of acetonitrile, followed by additional centrifugation at 1200× g for 10 min at 4 °C to precipitate high-molecular-weight proteins. The resulting supernatant (20 µL) was analyzed via RP-HPLC under the conditions outlined in Section 2.4. Peptide concentrations were quantified using calibration curves from peptide standards prepared in 50% (v/v) acetonitrile (Figure S4). The estimated blood volume of male rats was 6.86 mL per 100 g of body weight.
The pharmacokinetic parameters, including the half-life (t1/2), area under the plasma drug concentration–time curve (AUC), time-to-peak concentration (Tmax), and peak concentration (Cmax), were directly determined and analyzed. The absorption ratio (ARt; %) was defined as the percentage of the administered peptide dose (16 mg/kg BW) present in plasma, calculated as the product of peptide concentration and blood volume at each time point. The AUC method was also employed to quantify peptide absorption. The fractional absorption (%) of orally administered peptides was calculated using the following formula [23]: Fractional absorption (%)=ln2/t1/2×calculated oral AUC×plasma volume/oral dose×100

[2] = MALDI-TOF/TOF check of intact peptide in rat plasma; assay type: in vivo, Sprague–Dawley rats; details: 60 min post-administration, oral 16 mg/kg BW
Description: A 0.6 μL aliquot of peptide solution (1 mg/mL) was mixed with an equal volume of saturated α-cyano-4-hydroxycinnamic acid matrix and then air-dried on the target plate. The dried sample was subsequently analyzed using MALDI-TOF/TOF MS in positive ion reflection mode under a 20 kV accelerating voltage. Mass spectra were generated by averaging 200 laser shots within an m/z range of 200–2500 Da. Tandem mass spectrometry (MS/MS) was performed to determine peptide sequences, with data processed using BioTools software (Version 3.2, Bruker Daltonics, Billerica, MA, USA).
To verify that the peaks observed in the RP-HPLC chromatogram corresponded to the intact peptides GPFPLPD and […], plasma samples from rats with or without peptide administration were analyzed by MALDI-TOF/TOF, as described in Section 2.4.2.

DPP-IV = biological target: T1, DPP-IV (Sus scrofa, UniProt P22411); assay: In vitro DPP-IV inhibition assay; assay type: biochemical, porcine; details: synthesized peptides, in vitro enzymatic assay
T1 construct: purchased Sigma-Aldrich D7052; host or cells: porcine kidney (tissue-derived)
T1 sequence (P22411 whole entry): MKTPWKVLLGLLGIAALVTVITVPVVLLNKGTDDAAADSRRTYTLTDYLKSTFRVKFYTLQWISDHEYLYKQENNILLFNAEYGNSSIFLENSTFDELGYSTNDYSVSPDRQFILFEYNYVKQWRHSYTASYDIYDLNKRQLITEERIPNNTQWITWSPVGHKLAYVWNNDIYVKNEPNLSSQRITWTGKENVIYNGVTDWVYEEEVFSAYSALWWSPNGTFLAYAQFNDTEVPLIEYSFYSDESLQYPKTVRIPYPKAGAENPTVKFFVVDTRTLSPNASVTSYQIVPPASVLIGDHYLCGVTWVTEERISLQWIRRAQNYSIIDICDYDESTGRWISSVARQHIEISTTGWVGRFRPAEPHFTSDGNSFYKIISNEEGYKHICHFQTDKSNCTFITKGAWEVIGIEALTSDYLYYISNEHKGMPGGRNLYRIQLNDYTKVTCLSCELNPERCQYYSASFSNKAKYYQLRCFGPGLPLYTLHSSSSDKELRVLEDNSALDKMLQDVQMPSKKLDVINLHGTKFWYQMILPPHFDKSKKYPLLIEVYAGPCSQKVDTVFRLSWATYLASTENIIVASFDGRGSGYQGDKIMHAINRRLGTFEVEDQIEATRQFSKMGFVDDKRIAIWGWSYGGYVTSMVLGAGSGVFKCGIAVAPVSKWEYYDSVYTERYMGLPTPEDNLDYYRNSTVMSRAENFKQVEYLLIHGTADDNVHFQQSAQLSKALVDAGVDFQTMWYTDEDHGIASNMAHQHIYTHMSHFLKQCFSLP
Excerpt: Sodium caseinate was obtained from Gemfont Inc. (Taipei, Taiwan). Bromelain, derived from pineapple stem, was obtained from STBIO Media Inc. (New Taipei, Taiwan). Dipeptidyl peptidase-IV (DPP-IV; D7052, sourced from porcine kidney), Gly-Pro-p-nitroanilide, HEPES sodium salt (H3784), and RPMI-1640 medium (R8758) were obtained from Sigma-Aldrich (St. Louis, MO, USA). The remaining chemicals and reagents were of analytical grade and were available from commercial suppliers.
In this study, 1CBR was purified by RP-HPLC using a Model L-2130 HPLC system (Hitachi Ltd., Katsuda, Japan). Afterward, 2 mg of the lyophilized hydrolysate fraction was reconstituted in 1 mL of ddH2O, and 60 μL of the resulting solution was subjected to injection onto a ZORBAX Eclipse Plus C18 column (4.6 mm × 250 mm, Agilent Tech. Inc., Santa Clara, CA, USA) for analysis. A gradient of acetonitrile, ranging from 5% to 60% over 60 min, was applied in 0.1% TFA at 0.7 mL/min. Peptides were monitored at 220 nm. After collection, each fraction was lyophilized and stored in a desiccator for future use. The fractions were then re-dissolved in 100 mM Tris buffer (pH 7.0) to achieve a 1 mg/mL concentration and were evaluated for in vitro DPP-IV inhibitory activity. The assay for DPP-IV inhibition was conducted following the procedure outlined in our previous study.
The selected peptides were generated through Fmoc-based solid-phase peptide synthesis using an automated synthesizer (CS 136, CS Bio Co., San Carlos, CA, USA). Their structural integrity and purity were confirmed via RP-HPLC-MS/MS analysis. To assess their inhibitory potential against DPP-IV, the IC50 values were determined through in vitro enzymatic assays. […]

[3] = set-up: method as in PMID 25387326; details: adult Wistar rats, 40 mg/kg BW; cited from earlier work
[4] = set-up: method as in PMID 38581395; details: rat model, cited from earlier work
[5] = set-up: method as in PMID 29732892; details: rats, single oral dose 100 mg/kg body weight; cited from earlier work

Molecule: N[C@@H](CC(=O)N1CCn2c(nnc2C(F)(F)F)C1)Cc1cc(F)c(F)cc1F [sitagliptin]
effect on GLP-1 secretion (in words) (NCI-H716 cells): did not influence GLP-1 secretion; also recorded: failed to induce GLP-1 secretion
OGTT AUC compared to group C (db/db mice): significantly lower AUC values
plasma active GLP-1 level (active GLP-1): 12.29 pM
effect on GLP-1 secretion (in words) (STC-1 cells): did not influence GLP-1 secretion; also recorded: failed to induce GLP-1 secretion
plasma insulin level (plasma insulin): 11.31 µg/L
plasma total GLP-1 level (total GLP-1): unchanged

Molecule: GGHLFFC [GGHLFFC]
IC50 (DPP-IV): 642 µM

Molecule: GGKPSSMT
IC50 (DPP-IV): 839 µM

Molecule: HLPLP
Cmax [3]: 0.0201 µg/mL
absolute bioavailability [3]: 5.18%

Molecule: IRW
elimination half-life ([4]; intravenous injection): 0.475 h
elimination half-life ([4]; oral administration): 0.132 h
bioavailability [4]: 11.7%

Molecule: WDHHAPQLR [antioxidative peptide]
bioavailability [5]: 3.56%
elimination half-life [5]: 1.19 h

Second part, the molecule after the results:

oral bioavailability [1]: 19.12%
AR30 (absorption ratio at 30 min) [1]: 12.74 ± 2.17%
AR90 (absorption ratio at 90 min) [1]: 12.40 ± 1.97%
AUC [1]: 66.6 µg·h/mL
Cmax [1]: 44.6 ± 9.33 µg/mL
Fractional absorption [1]: 10.8%
Tmax [1]: 1 h
half-life [1]: 1.82 h
structural integrity in plasma (MALDI-TOF/TOF) [2]: remained structurally intact
IC50 (DPP-IV): 73.1 µM
Molecule: APDSGNFR

oral bioavailability [1]: 11.28%
AR30 (absorption ratio at 30 min) [1]: 10.21 ± 1.48%
AR90 (absorption ratio at 90 min) [1]: 6.52 ± 0.66%
AUC [1]: 40.2 µg·h/mL
Cmax [1]: 26.1 ± 4.12 µg/mL
Fractional absorption [1]: 7.2%
Tmax [1]: 1 h
half-life [1]: 1.65 h
structural integrity in plasma (MALDI-TOF/TOF) [2]: remained structurally intact
IC50 (DPP-IV): 99.1 µM
Molecule: GPFPLPD [GPFPLPD]
